Results on 6 molecules are retold here after patent publication US20240043557A1, “A PLATFORM TO OBTAIN MONOCLONAL ANTIBODIES DIRECTED AGAINST PROCESSED TUMOR-SPECIFIC ANTIGENS” (Mediterranea Theranostic srl, priority 2020, published 2024).

One series concerns the target T1, ADAM10 (Mus musculus, UniProt O35598).
T1 construct: endogenous in cells; host or cells: MTE 4-14 (transformed murine thymus cells) transfected with Trop-2
T1 sequence (O35598 215-749): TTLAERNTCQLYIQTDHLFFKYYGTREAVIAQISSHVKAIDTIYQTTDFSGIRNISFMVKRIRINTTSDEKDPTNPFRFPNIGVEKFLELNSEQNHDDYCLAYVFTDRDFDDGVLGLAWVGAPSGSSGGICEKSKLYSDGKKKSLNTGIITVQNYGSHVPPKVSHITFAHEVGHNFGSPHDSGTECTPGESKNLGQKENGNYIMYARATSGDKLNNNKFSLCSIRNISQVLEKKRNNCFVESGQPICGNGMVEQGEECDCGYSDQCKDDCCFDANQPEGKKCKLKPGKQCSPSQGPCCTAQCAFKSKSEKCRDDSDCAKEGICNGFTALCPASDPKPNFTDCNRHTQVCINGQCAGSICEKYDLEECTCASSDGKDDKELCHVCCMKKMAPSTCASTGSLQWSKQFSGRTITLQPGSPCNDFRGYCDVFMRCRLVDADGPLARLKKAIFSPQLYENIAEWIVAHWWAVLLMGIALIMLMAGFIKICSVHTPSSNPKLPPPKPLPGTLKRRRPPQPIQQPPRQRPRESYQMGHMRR
Description: Western blot of Trop-2 processing in MTE 4-14/Trop-2 transfectants upon ADAM10 inhibition. The class given is cell-based, murine. The following applies: for effect on Trop-2 processing: MTE 4-14/Trop-2 transfectants, WB; for minimum concentration found to be effective in inhibiting Trop-2 cleavage: concentration used, GM6001 24 hours, G1254023X two doses every 24 hours for 48 hours; for concentration found effective (up to): inhibition of Trop-2 cleavage. As for the experimental part:
ADAM 10 activity was inhibited in the MTE 4-14/Trop-2 transfectants by treatment with chemical inhibitors or mRNA silencing, and the effect on Trop-2 processing and on Trop-2-dependent cell growth was evaluated.
A. WB analysis following treatment with the broad-spectrum metalloprotease inhibitor GM6001 or with the specific ADAM10 inhibitor G1254023X or ADAM10 siRNA silencing, as indicated. […] T2-p: processed Trop-2; na: native form; pr: processed form.
Western blotting was performed as described (El Sewedy, Fomaro et al. 1998). Tumors from experimental animals were rapidly frozen upon surgical removal and stored at −80° C. Frozen samples were quickly thawed and homogenized with a Dounce homogenizer. Cleared homogenates of tumors and cultured cell lysates were analyzed by SDS-PAGE and transferred to nitrocellulose filters. Filters were hybridized with anti-human Trop-2 (affinity-purified polyclonal rabbit antiserum) or anti-ADAM10 antibodies.
Cells were treated with ADAM10 inhibitors for 24 hours at the minimum concentration found to be effective in inhibiting Trop-2 cleavage, then assayed as indicated. The GM6001 metalloprotease family inhibitor (Calbiochem) was dissolved in DMSO and used at 6.5-13 μM for 24 hours; up to 50 μM GM6001 were found effective. The G1254023X selective ADAM10 inhibitor, dissolved in DMSO, was kindly provided by Dr. A. Ludwig. Cells received two doses (10 μM) every 24 hours for 48 hours; up to 20 μM G1254023X were found effective. Control cells received vehicle alone.
(§1) Complementary strategies were utilized for siRNA design. Briefly, Tuschl′ criteria were applied, i.e. position in the mRNA, GC content, base composition and flanking sequences (Elbashir, Harborth et al. 2001). Invitrogen (maidesigner.invitrogen.com/maiexpress/) provides a proprietary algorithm that performs a statistical analysis of the target sequence, based on sequence composition, nucleotide content and thermodynamic properties, and compares candidates with validated siRNA sequences. The Whitehead Institute web site (jura.wi.mit.edu/bioc/siRNAext/) combines Tuschl′ criteria with predictions of binding energies for both sense and antisense siRNAs and with BLAST filtering of cross-hybridizing sequences. The Sonnhammer procedure (sonnhammer.cgb.ki.se/siSearch/) performs data mining (siSearch) on validated siRNA databanks, using motif rules and energy parameters. siRNA were synthesized that were identified by more than one method or considered optimal by any of the procedures above. Annealed oligos were subcloned into the pSUPER vector, kindly provided by Dr. R. Bernard (Brummelkamp, Bernards et al. 2002), under the control of the RNA polymerase III H1 gene promoter. siRNA expression constructs were transiently transfected MTE 4-14 transfectants, and cell growth was measured. siRNA-targeted transcript levels were quantified by real-time PCR. Negative control siRNAs directed towards irrelevant targets were used; these were chosen after extensive testing for lack of off-target influence on cell growth.
For orientation: In western blotting, separated proteins are transferred to a membrane and probed.

For series [1], the system named is metastatic triple-negative breast cancer (TNBC). Particulars: patients with metastatic TNBC; cited from earlier work.
Series [2] addresses T2, Trop-2 (wild-type human Trop-2, NCBI accession number NP_002344.2).
T2 chain: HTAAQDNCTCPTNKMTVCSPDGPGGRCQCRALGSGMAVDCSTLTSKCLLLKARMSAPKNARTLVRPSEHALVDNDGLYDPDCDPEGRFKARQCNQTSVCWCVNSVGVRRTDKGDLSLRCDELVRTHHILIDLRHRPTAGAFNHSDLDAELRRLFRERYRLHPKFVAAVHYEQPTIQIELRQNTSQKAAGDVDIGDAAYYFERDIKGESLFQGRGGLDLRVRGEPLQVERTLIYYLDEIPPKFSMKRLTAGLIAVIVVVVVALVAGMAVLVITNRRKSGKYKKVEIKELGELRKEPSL

For a further series, the system named is MTE 4-14 cells. Description: In vitro growth of MTE 4-14 transfectants upon siRNA-mediated inhibition. The class given is cell-based, murine. As for the experimental part:
C. In vitro growth curves of MTE 4-14 cells transfected with the empty vector, wtTrop-2 or R87A-T88A Trop-2 upon ADAM10 (upper graphs, black,), MMP9 (lower graphs, black,) or control (human CD133, gray), siRNA-mediated inhibition. Bars: SEM. The p value for the only significant difference (ANOVA analysis) is indicated. Stars indicate post-hoc Bonferroni's t test p values (*≤0.05, **≤0.001).
Cell transfectants were seeded at 1.5−3.0×10^3 cells/well in 96-well plates (five replica wells per data point). Cell numbers were quantified by staining with crystal violet. Cell numbers were normalized against a standard reference curve of two-fold serially diluted cell samples.
as §1, with “Negative control siRNAs directed towards irrelevant targets were used; these were chosen after extensive testing for lack of off-target influence on cell growth.” left out

For `CNC(=O)[C@H](Cc1c[nH]c2ccccc12)NC(=O)[C@@H](CC(=O)NO)CC(C)C` [GM6001], at ADAM10, the “effect on Trop-2 processing” value was “reduction in Trop-2 processing”, the “minimum concentration found to be effective in inhibiting Trop-2 cleavage” value was in the range of 6.5 to 13 µM and the “concentration found effective (up to)” value is “up to 50 μM”.

For the molecule Sacituzumab govitecan-hziy, the efficacy in patients entry in series [1] is recorded as “effective”.

For `CNC(=O)[C@@H](NC(=O)[C@H](CCCc1ccccc1)[C@H](C)N(O)C=O)C(C)(C)C` [G1254023X], on ADAM10, the “effect on Trop-2 processing” value is reported as “reduction in Trop-2 processing”, the “minimum concentration found to be effective in inhibiting Trop-2 cleavage” value was found to be 10 µM and the “concentration found effective (up to)” value is listed as “up to 20 μM”.

B1: murine ADAM10 (endogenous in MTE 4-14 cells) (protein)
chain: TTLAERNTCQLYIQTDHLFFKYYGTREAVIAQISSHVKAIDTIYQTTDFSGIRNISFMVKRIRINTTSDEKDPTNPFRFPNIGVEKFLELNSEQNHDDYCLAYVFTDRDFDDGVLGLAWVGAPSGSSGGICEKSKLYSDGKKKSLNTGIITVQNYGSHVPPKVSHITFAHEVGHNFGSPHDSGTECTPGESKNLGQKENGNYIMYARATSGDKLNNNKFSLCSIRNISQVLEKKRNNCFVESGQPICGNGMVEQGEECDCGYSDQCKDDCCFDANQPEGKKCKLKPGKQCSPSQGPCCTAQCAFKSKSEKCRDDSDCAKEGICNGFTALCPASDPKPNFTDCNRHTQVCINGQCAGSICEKYDLEECTCASSDGKDDKELCHVCCMKKMAPSTCASTGSLQWSKQFSGRTITLQPGSPCNDFRGYCDVFMRCRLVDADGPLARLKKAIFSPQLYENIAEWIVAHWWAVLLMGIALIMLMAGFIKICSVHTPSSNPKLPPPKPLPGTLKRRRPPQPIQQPPRQRPRESYQMGHMRR
Take B1: in series [2], the “Trop-2 processing (Western blot) after ADAM10 gene expression silencing by specific siRNAs” value is recorded as “Trop-2 processing was virtually abolished following ADAM10 silencing”.

B2: siRNAs targeting MMP9: control siRNA targeting murine MMP9 (NM_013599, nt 1780-1798), SEQ ID NO: 59/60 (nucleic acid, listed as Mus musculus)
chain 1: GATCCCCCCGCAGACCAAGAGGGTTTTTCAAGAGAAAACCCTCTTGGTCTGCGGTTTTTGGAAA
chain 2: AGCTTTTCCAAAAACCGCAGACCAAGAGGGTTTTCTCTTGAAAAACCCTCTTGGTCTGCGGGGG
For the molecule B2, the “effect on cell proliferation” value with MTE 4-14 cells (MTE 4-14 transfectants, siRNA targeting MMP9) is given as “no effect on cell proliferation”.

B3: ADAM10 siRNA: siRNA targeting murine ADAM10 (NM_007399.3, nt 292-309), SEQ ID NO: 57/58, expressed from pSUPER (nucleic acid, listed as Mus musculus)
chain 1: GATCCCCAGACATTATGAAGGATTATTTCAAGAGAATAATCCTTCATAATGTCTTTTTTGGAAA
chain 2: AGCTTTTCCAAAAAAGACATTATGAAGGATTATTCTCTTGAAATAATCCTTCATAATGTCTGGG
For the molecule B3, the “effect on in vitro growth of R87A-T88A or empty vector transfectants” value with MTE 4-14 cells (MTE 4-14 R87A-T88A or empty vector transfectants) is recorded as “no effect”. Also, in the series on MTE 4-14 cells (MTE 4-14 wtTrop-2 transfectants), the “effect on in vitro growth of wtTrop-2 transfectants” value is “overrides Trop-2 dependent growth stimulus”. In the series with ADAM10, the “effect on Trop-2 processing” value is given as “inhibited Trop-2 processing”.
